*1 amine or outer side, *2 acyl side, *3 side chain or, on linkers, in order; H or OH if unused. Where a SMILES comes first, the peptide text is derived from it. Bridges are numbered along the chain shown (N, C = ends). [ ]: non-standard residue; d: D form. The star is where a group is joined. ξ: configuration not given here. Phe(3-CF3) = N[C@@H](Cc1cccc(C(F)(F)F)c1)C(=O)O; Trp(5-F) = N[C@@H](Cc1c[nH]c2ccc(F)cc12)C(=O)O; Trp(7-aza) = N[C@@H](Cc1c[nH]c2ncccc12)C(=O)O; pY = N[C@@H](Cc1ccc(OP(=O)(O)O)cc1)C(=O)O; pT = C[C@@H](OP(=O)(O)O)[C@H](N)C(=O)O; mXylylene = c1cc(C[*:1])cc(C[*:2])c1; pS = N[C@@H](COP(=O)(O)O)C(=O)O; aThr = C[C@H](O)[C@H](N)C(=O)O; Tle = CC(C)(C)[C@H](N)C(=O)O; αMeV = CC(C)[C@](C)(N)C(=O)O; αMeS = C[C@](N)(CO)C(=O)O; Api = NC1(C(=O)O)CCNCC1; ξαMeS = CC(N)(CO)C(=O)O; Aib = CC(C)(N)C(=O)O; Mpa = O=C(O)CCS; X5 = COCC*
What was measured:
Format in all cases: binding
[1] = biological target: human PCSK9 / human LDLR EGFa domain interaction (Homo sapiens, UniProt Q8NBP7); experiment: TR-FRET assay of inhibition of the PCSK9-LDLR protein-protein interaction; settings: 20 nM biotinylated human PCSK9 + 20 nM his-tagged human LDLR EGFa domain, 2 hours room temperature
human PCSK9 / human LDLR EGFa domain interaction, sequence (Q8NBP7 153-692): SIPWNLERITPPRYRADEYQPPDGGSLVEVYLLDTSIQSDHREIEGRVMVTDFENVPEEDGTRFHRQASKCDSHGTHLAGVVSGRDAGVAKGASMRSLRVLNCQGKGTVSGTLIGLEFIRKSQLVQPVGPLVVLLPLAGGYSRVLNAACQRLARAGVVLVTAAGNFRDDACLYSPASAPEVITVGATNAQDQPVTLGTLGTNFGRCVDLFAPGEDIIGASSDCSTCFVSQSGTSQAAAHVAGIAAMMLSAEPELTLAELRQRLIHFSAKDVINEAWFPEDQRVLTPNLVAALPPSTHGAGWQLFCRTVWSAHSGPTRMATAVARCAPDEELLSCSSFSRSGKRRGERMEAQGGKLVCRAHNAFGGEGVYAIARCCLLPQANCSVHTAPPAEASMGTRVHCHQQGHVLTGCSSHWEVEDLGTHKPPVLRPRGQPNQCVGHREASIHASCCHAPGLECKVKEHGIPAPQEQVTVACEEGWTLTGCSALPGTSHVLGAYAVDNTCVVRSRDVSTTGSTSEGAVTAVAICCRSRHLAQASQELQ
human PCSK9 / human LDLR EGFa domain interaction, sequence (Q8NBP7 31-152 partner limits assumed): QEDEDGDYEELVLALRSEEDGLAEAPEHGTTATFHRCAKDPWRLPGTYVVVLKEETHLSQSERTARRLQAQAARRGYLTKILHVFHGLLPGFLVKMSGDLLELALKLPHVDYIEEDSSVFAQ
Method in brief: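 Biotinylated human PCSK9 (20 nM) and His-tagged human LDLR EGFa domain (20 nM) incubated with Ulight-streptavidin and Eu-anti-His (5 nM each), 2 h at room temperature, in HEPES pH buffer with 5 mM CaCl2. TR-FRET read-out; IC50 from 4-parameter fit of dose-response.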

PCSK9 [2] = biological target: T1, PCSK9 (Homo sapiens, UniProt Q8NBP7); experiment: PCSK9 Alexa FRET Standard assay (displacement of AlexaFluor647-tagged cyclic peptide Reagent A); settings: 0.5 nM PCSK9, 20 nM AF cyclic peptide Reagent A
T1 construct: biotin (biotinylated)
T1 sequence (Q8NBP7 153-692): as the sequence (Q8NBP7 153-692) above
Protocol: A solution containing 1 nM biotinylated PCSK9+2.5 nM Lance Streptavidin Europium (Strep-Eu) was made in 50 mM HEPES pH 7.4, 0.15 M NaCl, 5 mM CaCl2, 0.01% BSA, and 0.01% Surfactant P20. A separate solution containing 40 nM of the AlexaFluor tagged cyclic peptide was made in the same buffer system. An Echo was used to transfer 0.750 ul of compound to an assay plate followed by the addition of 15 ul of PCSK9+Stept-Eu and 15 ul of AF peptide. The final assay volume was 30.750 ul containing 0.5 nM PCSK9, 1.25 nM Strep-Eu, and 20 nM AF cyclic peptide. The reaction was incubated at room temperature for at least two hours prior to fluorescence measurements using an Envision Multilabel Reader. IC50 values were determined by fitting data to a sigmoidal dose-response curve using nonlinear regression. Ki was then calculated from the IC50 and the KD of AF cyclic peptide. Counts (B-counts) of the europium-labeled PCSK9 were followed to observe if compounds were […]. A fall off of the B-counts likely indicated a false positive of inhibition. Data from this procedure was reported as “A=‘numerical value’ (nanomolar)”

PCSK9 [3] = biological target: T1, PCSK9; experiment: PCSK9 Alexa FRET Plus assay (displacement of AlexaFluor647-tagged cyclic peptide Reagent B); settings: 0.5 nM PCSK9, 960 nM AF cyclic peptide Reagent B
Protocol: A solution containing 1 nM biotinylated PCSK9+2.5 nM Lance Streptavidin Europium (Strep-Eu) was made in 50 mM HEPES pH 7.4, 0.15 M NaCl, 5 mM CaCl2, 0.01% BSA, and 0.01% Surfactant P20. A separate solution containing 1920 nM of the AlexaFluor tagged cyclic peptide was made in the same buffer system. An Echo was used to transfer 0.075 ul of compound plus 0.675 ul of DMSO to each well of an assay plate followed by the addition of 15 ul of PCSK9+Stept-Eu and 15 ul of AF peptide. The final assay volume was 30.750 ul containing 0.5 nM PCSK9, 1.25 nM Strep-Eu, and 960 nM AF cyclic peptide. The reaction was incubated at room temperature for at least two hours prior to fluorescence measurements using an Envision Multilabel Reader. IC50 values were determined by fitting data to a sigmoidal dose-response curve using nonlinear regression. Ki was then calculated from the IC50 and the KD of AF cyclic peptide. Counts (B-counts) of the europium-labeled PCSK9 were followed to observe if compounds were adversely affecting PCSK9. A fall off of the B-counts likely indicated a false positive of inhibition. Data from this procedure was reported as “P=‘numerical value’ (nanomolar)”

Compound | IC50 [1] [nM] | IC50 (PCSK9 [2]) [nM] | IC50 (PCSK9 [3]) [nM]
CC1O[C@@H](C)[C@@H]2NC(=O)[C@@]1(C)NC(=O)[C@H](Cc1ccc(OP(=O)(O)O)cc1)NC(=O)[C@H](C)NC(=O)C(C)(C)NC(=O)[C@H](Cc1c[nH]c3ncccc13)NC(=O)[C@H]([C@@H](C)O)NC(=O)[C@@H]1CCCN1C(=O)[C@H](Cc1ccc(O)cc1)NC(=O)[C@H](C(C)(C)C)NC(=O)CCSCc1cccc(c1)CSC[C@@H](C(N)=O)NC2=O (stereo partly drawn) [Compound 014] | 1 to 100 | 1 to 100 | 1 to 100
CC(C)[C@]1(C)NC(=O)[C@H](Cc2ccc(O)cc2)NC(=O)[C@H](C)NC(=O)C(C)(C)NC(=O)[C@H](Cc2c[nH]c3ncccc23)NC(=O)[C@H]([C@@H](C)O)NC(=O)[C@@H]2CCCN2C(=O)[C@H](Cc2ccc(O)cc2)NC(=O)[C@H](C(C)(C)C)NC(=O)CCSCc2cccc(c2)CSC[C@@H](C(N)=O)NC(=O)[C@H]([C@@H](C)OP(=O)(O)O)NC1=O [Compound 015] ([Mpa][Tle]YPT[Trp(7-aza)][Aib]AY[αMeV][pT]C-NH2; linker 1-12 via mXylylene) | 1 to 100 | 1 to 100 | 1 to 100
CC(C)[C@]1(C)NC(=O)[C@H](Cc2ccc(O)cc2)NC(=O)[C@H](C)NC(=O)C(C)(C)NC(=O)[C@H](Cc2c[nH]c3ncccc23)NC(=O)[C@H]([C@@H](C)O)NC(=O)[C@@H]2CCCN2C(=O)[C@H](Cc2ccc(O)cc2)NC(=O)[C@H](C(C)(C)C)NC(=O)CCSCc2cccc(c2)CSC[C@@H](C(N)=O)NC(=O)[C@H](COP(=O)(O)O)NC1=O [Compound 016] ([Mpa][Tle]YPT[Trp(7-aza)][Aib]AY[αMeV][pS]C-NH2; linker 1-12 via mXylylene) | 1 to 100 | 1 to 100 | 1 to 100
CC(C)[C@](C)(NC(=O)[C@H](Cc1ccc(O)cc1)NC(=O)[C@H](C)NC(=O)C(C)(C)NC(=O)[C@H](Cc1c[nH]c2ncccc12)NC(=O)[C@@H](NC(=O)[C@@H]1CCCN1C(=O)[C@@H]1Cc2ccc(O)c(c2)CCCC[C@H](N)C(=O)N[C@@H](C(C)(C)C)C(=O)N1)[C@@H](C)O)C(N)=O [Compound 032] |  | 1 to 100 | 1 to 100
CC(=O)N[C@H]1CSCc2cccc(c2)CSC[C@H](C(N)=O)NC(=O)[C@H]([C@H](C)O)NC(=O)[C@](C)(C(C)C)NC(=O)[C@H](Cc2ccc(OP(=O)(O)O)cc2)NC(=O)[C@H](C)NC(=O)C(C)(C)NC(=O)[C@H](Cc2c[nH]c3ncccc23)NC(=O)[C@H]([C@@H](C)O)NC(=O)[C@@H]2CCCN2C(=O)[C@H](Cc2ccc(O)cc2)NC(=O)[C@H](C(C)(C)C)NC1=O [Compound 039] (Ac-C[Tle]YPT[Trp(7-aza)][Aib]A[pY][αMeV][aThr][dC]-NH2; linker 1-12 via mXylylene) |  | 100 to 1000 | 1 to 100
CC(=O)N[C@H]1CSCc2cccc(c2)CSC[C@H](C(N)=O)NC(=O)[C@H]([C@H](C)O)NC(=O)[C@](C)(C(C)C)NC(=O)[C@H](Cc2ccc(O)cc2)NC(=O)[C@H](C)NC(=O)C(C)(C)NC(=O)[C@H](Cc2c[nH]c3ncccc23)NC(=O)[C@H]([C@@H](C)O)NC(=O)[C@@H]2CCCN2C(=O)[C@H](Cc2ccccc2)NC(=O)[C@H](C(C)(C)C)NC1=O [Compound 040] (Ac-C[Tle]FPT[Trp(7-aza)][Aib]AY[αMeV][aThr][dC]-NH2; linker 1-12 via mXylylene) |  | 1 to 100 | 1 to 100
CC(=O)N[C@H]1CSCc2cccc(c2)CSC[C@H](C(N)=O)NC(=O)[C@H]([C@H](C)O)NC(=O)[C@](C)(C(C)C)NC(=O)[C@H](Cc2ccc(O)cc2)NC(=O)[C@H](C)NC(=O)C(C)(C)NC(=O)[C@H](Cc2c[nH]c3ncccc23)NC(=O)[C@H]([C@@H](C)O)NC(=O)[C@@H]2CCCN2C(=O)[C@H](Cc2cccc(C(F)(F)F)c2)NC(=O)[C@H](C(C)(C)C)NC1=O [Compound 041] (Ac-C[Tle][Phe(3-CF3)]PT[Trp(7-aza)][Aib]AY[αMeV][aThr][dC]-NH2; linker 1-12 via mXylylene) |  | 21000 to 50000 | 500 to 5000
CC(=O)N[C@H]1CSCc2cccc(c2)CSC[C@H](C(N)=O)NC(=O)[C@H]([C@H](C)O)NC(=O)[C@](C)(C(C)C)NC(=O)[C@H](Cc2ccc(O)cc2)NC(=O)[C@H](C)NC(=O)C(C)(C)NC(=O)[C@H](Cc2c[nH]c3ncccc23)NC(=O)[C@H]([C@@H](C)O)NC(=O)[C@@H]2CCCN2C(=O)[C@H](Cc2c[nH]c3ccc(F)cc23)NC(=O)[C@H](C(C)(C)C)NC1=O [Compound 042] (Ac-C[Tle][Trp(5-F)]PT[Trp(7-aza)][Aib]AY[αMeV][aThr][dC]-NH2; linker 1-12 via mXylylene) |  | 1 to 100 | 1 to 100

More lines, now with the values ahead:

IC50 [1] [nM] | IC50 (PCSK9 [2]) [nM] | IC50 (PCSK9 [3]) [nM] | Compound
 | 1 to 100 | 1 to 100 | CC(=O)N[C@H]1CSCc2cccc(c2)CSC[C@H](C(N)=O)NC(=O)[C@H]([C@@H](C)O)NC(=O)[C@](C)(C(C)C)NC(=O)[C@H](Cc2ccc(O)cc2)NC(=O)[C@H](C)NC(=O)[C@](C)(CO)NC(=O)[C@H](Cc2c[nH]c3ncccc23)NC(=O)[C@H]([C@@H](C)O)NC(=O)[C@@H]2CCCN2C(=O)[C@H](Cc2ccc(O)cc2)NC(=O)[C@H](C(C)(C)C)NC1=O [Compound 031] (Ac-C[Tle]YPT[Trp(7-aza)][αMeS]AY[αMeV]T[dC]-NH2; linker 1-12 via mXylylene)
 | 1 to 100 | 1 to 100 | CC(=O)N[C@H]1CSCc2cccc(c2)CSC[C@H](C(N)=O)NC(=O)[C@H]([C@@H](C)O)NC(=O)[C@](C)(C(C)C)NC(=O)[C@H](Cc2ccc(O)cc2)NC(=O)[C@H](C)NC(=O)C2(CCNCC2)NC(=O)[C@H](Cc2c[nH]c3ncccc23)NC(=O)[C@H]([C@@H](C)O)NC(=O)[C@@H]2CCCN2C(=O)[C@H](Cc2ccc(O)cc2)NC(=O)[C@H](C(C)(C)C)NC1=O [Compound 034] (Ac-C[Tle]YPT[Trp(7-aza)][Api]AY[αMeV]T[dC]-NH2; linker 1-12 via mXylylene)
 | 100 to 1000 | 100 to 500 | COCC1(C)NC(=O)[C@H](Cc2c[nH]c3ncccc23)NC(=O)[C@H]([C@@H](C)O)NC(=O)[C@@H]2CCCN2C(=O)[C@H](Cc2ccc(O)cc2)NC(=O)[C@H](C(C)(C)C)NC(=O)[C@@H](NC(C)=O)CSCc2cccc(c2)CSC[C@H](C(N)=O)NC(=O)[C@H]([C@@H](C)O)NC(=O)[C@](C)(C(C)C)NC(=O)[C@H](Cc2ccc(O)cc2)NC(=O)[C@H](C)NC1=O (stereo partly drawn) [Compound 035] (Ac-C[Tle]YPT[Trp(7-aza)][ξαMeS](Me)AY[αMeV]T[dC]-NH2; linker 1-12 via mXylylene)
 | 1 to 100 | 1 to 100 | COCCOCC1(C)NC(=O)[C@H](Cc2c[nH]c3ncccc23)NC(=O)[C@H]([C@@H](C)O)NC(=O)[C@@H]2CCCN2C(=O)[C@H](Cc2ccc(O)cc2)NC(=O)[C@H](C(C)(C)C)NC(=O)[C@@H](NC(C)=O)CSCc2cccc(c2)CSC[C@H](C(N)=O)NC(=O)[C@H]([C@@H](C)O)NC(=O)[C@](C)(C(C)C)NC(=O)[C@H](Cc2ccc(O)cc2)NC(=O)[C@H](C)NC1=O (stereo partly drawn) [Compound 036] (Ac-C[Tle]YPT[Trp(7-aza)][ξαMeS](X5)AY[αMeV]T[dC]-NH2; linker 1-12 via mXylylene)
